Source: US20250235460A1, “COMBINATION THERAPY USING GLUCOSE-DEPENDENT INSULINOTROPIC POLYPEPTIDE RECEPTOR ANTAGONIST COMPOUNDS AND GLP-1 RECEPTOR AGONIST COMPOUNDS” (Pfizer Inc., priority 2024, published 2025)
pIC50: −log10 of the molar value. Where two headings read alike, the source gives them in different places.

Target: T1, human Glucose-dependent Insulinotropic Polypeptide Receptor (hGIPR) (Homo sapiens, UniProt P48546)
T1 sequence (P48546 22-466): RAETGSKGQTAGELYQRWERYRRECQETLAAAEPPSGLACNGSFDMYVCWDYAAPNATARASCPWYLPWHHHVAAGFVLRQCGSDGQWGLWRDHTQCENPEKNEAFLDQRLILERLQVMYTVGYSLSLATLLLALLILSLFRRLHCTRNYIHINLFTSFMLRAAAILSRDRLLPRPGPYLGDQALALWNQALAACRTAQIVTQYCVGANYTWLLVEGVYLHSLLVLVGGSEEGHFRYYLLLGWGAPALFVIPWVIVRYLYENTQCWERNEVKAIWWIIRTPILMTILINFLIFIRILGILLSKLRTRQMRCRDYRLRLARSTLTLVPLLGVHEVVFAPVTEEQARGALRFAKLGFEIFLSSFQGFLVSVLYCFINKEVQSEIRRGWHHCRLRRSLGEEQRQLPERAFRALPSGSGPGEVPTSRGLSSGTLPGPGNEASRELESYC
Assay: Functional in vitro GIPR antagonist potency assay (cAMP HTRF, CHO-K1 cells stably expressing hGIPR, hGIP stimulation at EC80)
Assay type: cell-based
Method: The functional in vitro antagonist potency for test compounds was determined by monitoring intracellular cyclic adenosine monophosphate (cAMP) levels in Chinese hamster ovary (CHO)—K1 cells stably expressing the human Glucose-dependent Insulinotropic Polypeptide Receptor (hGIPR). Following agonist activation, hGIPR associates with the G-protein complex causing the Gas subunit to exchange bound guanosine diphosphate (GDP) for guanosine triphosphate (GTP), followed by dissociation of the Gas-GTP complex. The activated Gas subunit can couple to downstream effectors to regulate the levels of second messengers or cAMP within the cell. Thereby, determination of intracellular cAMP levels allows for pharmacological characterization. Intracellular cAMP levels are quantitated using a homogenous assay utilizing the Homogeneous Time Resolved Fluorescence (HTRF) technology from Perkin Elmer. […] The two entities compete for binding to a monoclonal anti-cAMP antibody labeled with cryptate. The specific signal is inversely proportional to the concentration of cAMP in the cells.
Test compounds were solubilized to a concentration of 30 mM in 100% dimethyl sulfoxide (DMSO). An 11-point dilution series using 1 in 3.162-fold serial dilutions was created in 100% DMSO with a top concentration of 8 mM. […]
Frozen assay-ready vials (at 1×10^7 cells/vial) of CHO-K1 cells stably expressing the Gs-coupled human GIPR receptor (Eurofins, DiscoverX, Cat No. 95-0146C2) were thawed, counted, and resuspended in assay buffer consisting of Hank's Balanced Salt Solution (HBSS, Lonza Cat No. 10-527) containing 20 mM (4-(2-hydroxyethyl)-1-piperazineethanesulfonic acid (HEPES, Lonza, Cat No. 17-737E), 0.1% bovine serum albumin (BSA, Sigma, Cat No. A7979), and 200 μM 3-isobutyl-1-methylxanthine (IBMX, Sigma, Cat No. 15879) at a density of 4×10^5 cells/mL. Cells were added to assay plate (5 μL/well of 4×10^5 cells/mL stock for 2,000 cells/well final) containing 50 nL of 200×FAC test compound, and incubated at 37° C. […] ([…]: 5% CO2), after which intracellular cAMP levels were quantified as per Perkin Elmer's protocol (5 μL of d2 and then 5 μL cryptate, incubated for 1 hour at room temperature). Emission spectra of samples were measured on a Pherastar plate reader (BMG Labtech Inc) using a HTRF protocol (excitation, 320 nm; emission, 665 nm/620 nm).
([…]: 5% CO2), with a micro-clime lid. […] ([…]: 5% CO2), after which intracellular cAMP levels were quantified and samples measured as described previously. […]
Data were analyzed using the ratio of fluorescence intensity at 620 and 665 nm for each well, extrapolated from the cAMP standard curve to express data as nanomolar (nM) cAMP for each well. […]

[1] = CHO-K1 cells stably expressing human GIPR, inhibition of hGIP (EC80)-stimulated cAMP, 2 h preincubation

SMILES | pIC50 | pIC50 [1]
CC(C)c1ccc(NC(=O)N2CC[C@H](C)[C@@H]2C(=O)Nc2ccc(-c3ccc(C(=O)O)cc3)cc2)cc1 (single isomer, unassigned) [Compound 34A, 4′-{[(3S)-3-Methyl-1-{[4-(propan-2-yl)phenyl]carbamoyl}-D-prolyl]amino}[1,1′-biphenyl]-4-carboxylic acid or 4′-{[(3R)-3-Methyl-1-{[4-(propan-2-yl)phenyl]carbamoyl}-L-prolyl]amino}[1,1′-biphenyl]-4-carboxylic acid] | 8.00 | –
CC(C)c1ccc(NC(=O)N2CC[C@@H](C)[C@@H]2C(=O)Nc2ccc(-c3ccc(C(=O)O)cc3)cc2)cc1 (single isomer, unassigned) [Compound 35A, 4′-{[(3R)-3-Methyl-1-{[4-(propan-2-yl)phenyl]carbamoyl}-D-prolyl]amino}[1,1′-biphenyl]-4-carboxylic acid or 4′-{[(3S)-3-Methyl-1-{[4-(propan-2-yl)phenyl]carbamoyl}-L-prolyl]amino}[1,1′-biphenyl]-4-carboxylic acid] | 8.34 | –
Cc1cc(NC(=O)N2CCC[C@@H]2C(=O)Nc2ccc(-c3ccc(C(=O)O)nc3)cc2)ccc1C(C)C [Compound 19A, 5-{4-[(1-{[3-Methyl-4-(propan-2-yl)phenyl]carbamoyl}-D-prolyl)amino]phenyl}pyridine-2-carboxylic acid] | – | 7.96
O=C(O)c1ccc(-c2ccc(NC(=O)[C@H]3CCCN3C(=O)Nc3ccc(C(F)(F)F)cc3)nc2)cc1 [Compound 31A, 4-{6-[(1-{[4-(Trifluoromethyl)phenyl]carbamoyl}-D-prolyl)amino]pyridin-3-yl}benzoic acid] | – | 8.11
